The source of these data is patent publication US9951039B2, “Pyrimidines for treatment of bacterial infections” (The Hong Kong Polytechnic University, priority 2016, dated 2018).

The structures appear in SMILES notation. ≈ marks a conversion by molar mass, not a printed value.

For test [1], the system named is USA300 #757 (community-associated MRSA). As to the kind of experiment: MIC against clinically isolated strain 7. The format is cell-based, S. aureus. Particulars: Staphylococcus aureus. As to the method: (§1) Procedure of Antimicrobial susceptibility test: The MIC value of compounds was measured in the antimicrobial susceptibility test using the broth microdilution procedure in accordance with the CLSI guidelines.^21 Cation-adjusted Mueller Hinton broth (CA-MHB) was used for all the S. aureus strains in the assay. Cells in exponential phase of growth were diluted to approximately 5×10^5 cfu/mL. Stock solutions of each compound were freshly dissolved in dimethyl sulfoxide (DMSO). Then, serial dilutions of each compound in CA-MHB medium were added into 96-well microplate. The final percentage of DMSO in the assay was 1%. Control experiments were performed with 1% DMSO instead of the compound solution. After being incubated at 37° C. for 18 h, OD600 value of cells was measured on a microplate reader and the percentage of bacterial cell inhibition with respect to controls was calculated. The MIC value was defined as the lowest compound concentration at which the growth of bacteria was inhibited by ≥90%. Three independent assays were performed for each compound.
(§2) Results: Three compounds, namely 14av_amine16, 14dv_amine16 and 14dv_amine06, were selected to be tested against nine in-house clinically isolated bacterial strains including S. aureus ATCC29247, which is an ampicillin resistant strain, S. aureus ATCC BAA-41, ATCC BAA-1717, ATCC BAA-1720, ATCC 43300 which are methicillin resistant strains and four USA300 strains, (#417, #757, #1799 and #2690), which are the predominant strain type of community-associated MRSA strains in the United States.

For test [2], the system named is USA300 #1799 (community-associated MRSA). The test can be described thus: MIC against clinically isolated strain 8. The format is cell-based, S. aureus. Conditions: Staphylococcus aureus. The method, then:
as §1, §2

For test [3], the system named is USA300 #2690 (community-associated MRSA). As to the kind of experiment: MIC against clinically isolated strain 9. The format is cell-based, S. aureus. Conditions: Staphylococcus aureus. The method, then:
as §1, §2

The target in the next test is T1, S. aureus FtsZ (Staphylococcus aureus, UniProt P0A031).
T1 construct: 6-histidine tag; made in house; host or cells: E. coli BL21(DE3)
T1 sequence (P0A031 1-390): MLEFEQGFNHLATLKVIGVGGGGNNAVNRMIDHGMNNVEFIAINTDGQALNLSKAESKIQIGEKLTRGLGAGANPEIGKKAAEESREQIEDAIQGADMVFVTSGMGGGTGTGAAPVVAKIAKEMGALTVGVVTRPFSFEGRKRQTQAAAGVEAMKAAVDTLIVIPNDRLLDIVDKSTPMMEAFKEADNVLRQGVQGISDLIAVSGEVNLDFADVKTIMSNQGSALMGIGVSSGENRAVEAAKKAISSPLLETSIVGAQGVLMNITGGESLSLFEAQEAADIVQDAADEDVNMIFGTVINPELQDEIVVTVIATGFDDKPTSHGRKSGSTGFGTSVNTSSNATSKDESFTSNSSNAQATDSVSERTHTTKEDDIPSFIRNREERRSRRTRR
The test can be described thus: GTPase hydrolysis assay (CytoPhos phosphate assay). The format is biochemical. As to the method:
Procedure for expression and purification of S. aureus FtsZ protein: S. aureus FtsZ protein was prepared as previous reported.^16a In brief, E. coli BL21(DE3) cells, transformed with a pRSET-A-S vector carrying S. aureus FtsZ with a 6-histidine tag attached, were streaked on a nutrient agar plate containing 50 μg/mL ampicillin. After overnight incubation at 37° C., a single colony was inoculated into 5 mL of Luria-Bertani (LB) medium in the presence of 50 μg/mL ampicillin, which was then incubated at 37° C., with shaking at 250 rpm for 16 h. The overnight culture was transferred into a fresh 2×TY medium in a dilution ratio of 1:100 and 50 μg/mL ampicillin was then added, followed by incubation at 37° C. with shaking at 250 rpm. When OD600 reached 0.8, protein expression was induced with 0.4 mM isopropyl-β-D-thiogalactopyranoside (IPTG) for 4 h. Cells were harvested by centrifugation at 9000 rpm for 20 min at 4° C. […]
Procedure: The inhibitory effect of compound 14av_amine16 on GTPase hydrolysis activity was investigated according to the protocol described previously.^18 The GTPase activity of S. aureus FtsZ was estimated in a 96-well microplate using a CytoPhos phosphate assay Biochem Kit based on the manufacturer's instructions. […] The precipitated inorganic phosphate was quantified by measuring the absorbance at 650 nm in a microplate reader. […]

A word on the MIC: it is the lowest concentration that inhibits growth of the organism. One may read the inhibition as how much of the control response was suppressed. A higher inhibition goes with a response far below the control. With `CCC(CC)c1cc(CCN2CCCN(Cc3ccc(C(F)(F)F)cc3)CC2)nc(-c2ccncc2)n1` [Compound 14av_amine16, 1-(2-(6-(pentan-3-yl)-2-(pyridin-4-yl)pyrimidin-4-yl)ethyl)-4-(4-(trifluoromethyl)benzyl)-1,4-diazepane], the minimal inhibitory concentration (MIC) in test [1], in test [2] and in test [3] was 12 µM (≈ 6.14 µg/mL) throughout. Further, the inhibition at 50 µM on S. aureus FtsZ (compound at 50 μM) is ~20%. Further, the inhibition at 75 µM against S. aureus FtsZ (compound at 75 μM) was ~25%.
